Broadly, the pIC50 is the negative decadic logarithm of the IC50, by convention in mol/L.

Results on 13 compounds are retold here after patent US20230192691A1, “HETEROCYCLIC COMPOUNDS AS BTK INHIBITORS” (Beijing InnoCare Pharma Tech Co., Ltd., priority 2020, published 2023).

pIC50: −log10 of the molar value.

Experiment [1] has as its target T1, human-derived recombinant BTK protein (Homo sapiens, UniProt Q06187).
T1 construct: purchased Carna Biosciences 08-180
Description: BTK activity inhibition assay (HTRF in vitro kinase assay). It counts as biochemical. The note with it: 40 μM ATP, 0.2 ng/μL BTK. As for the experimental part:
In vitro kinase assay was used to evaluate the effects of compounds of the present invention on BTK activity (Table 1).
(§1) By using the homogeneous time-resolved fluorescence (HTRF) kinase detection kit (Cisbio, catalog number 62TK0PEC), the enzymatic activity of BTK is determined by detecting the phosphorylation level of the substrate in the kinase reaction. The reaction buffer contains the enzyme reaction buffer (1×) from the kit, 5 mM MgCl2, 1 mM DTT, 10 nM SEB and 0.01% Tween-20; the kinase reaction solution contains human-derived recombinant BTK protein (Carna Biosciences, Catalog No. 08-180) diluted to 0.2 ng/μL with the reaction buffer; the substrate reaction solution contains biotin-labeled tyrosine kinase substrate diluted to 0.5 μM with the reaction buffer and 40 μM ATP; the detection buffer contains Eu^3+-labeled cage antibody diluted to 0.05 ng/μL and streptavidin-labeled XL665 antibody diluted to 31.25 nM with the reaction buffer; the test compound is dissolved and diluted to 100 μM with DMSO, followed by a 4-fold serial dilution with DMSO to the lowest concentration of 6.1 nM and finally 40-time dilution with the reaction buffer for each concentration point. If the IC50 value of the compound is very low, the initial concentration of the compound is reduced.
(§2) Add 4 μL test compound solution and 2 μL kinase reaction solution to a 384-well detection plate (Corning, catalog number 3674), mix well and incubate at room temperature for 15 minutes; add 4 μL substrate reaction solution and incubate for 50 minutes; add 10 μL detection buffer, mix well and stand for 60 minutes; detect signal at 620 nm and 665 nm using an Envision plate reader (Perkin Elmer). The signal value (absorbance at 665 nm/absorbance at 620 nm) is positively correlated with the degree of phosphorylation of the substrate, thereby detecting the kinase activity of BTK. In this experiment, the group without BTK is the negative control (100% inhibition) and the group with BTK but no compound is the positive control (0% inhibition). The inhibition curve is plotted and the corresponding IC50 value of the test compound is calculated using XLfit software (ID Business Solutions Ltd., UK).
A general note: TR-FRET usually uses a lanthanide donor and a delayed reading to cut background.

Experiment [2] deals with T2, human recombinant BTK C481S protein (Homo sapiens, UniProt Q06187, C481S).
T2 construct: made in house
T2 sequence (Q06187 whole entry C481S): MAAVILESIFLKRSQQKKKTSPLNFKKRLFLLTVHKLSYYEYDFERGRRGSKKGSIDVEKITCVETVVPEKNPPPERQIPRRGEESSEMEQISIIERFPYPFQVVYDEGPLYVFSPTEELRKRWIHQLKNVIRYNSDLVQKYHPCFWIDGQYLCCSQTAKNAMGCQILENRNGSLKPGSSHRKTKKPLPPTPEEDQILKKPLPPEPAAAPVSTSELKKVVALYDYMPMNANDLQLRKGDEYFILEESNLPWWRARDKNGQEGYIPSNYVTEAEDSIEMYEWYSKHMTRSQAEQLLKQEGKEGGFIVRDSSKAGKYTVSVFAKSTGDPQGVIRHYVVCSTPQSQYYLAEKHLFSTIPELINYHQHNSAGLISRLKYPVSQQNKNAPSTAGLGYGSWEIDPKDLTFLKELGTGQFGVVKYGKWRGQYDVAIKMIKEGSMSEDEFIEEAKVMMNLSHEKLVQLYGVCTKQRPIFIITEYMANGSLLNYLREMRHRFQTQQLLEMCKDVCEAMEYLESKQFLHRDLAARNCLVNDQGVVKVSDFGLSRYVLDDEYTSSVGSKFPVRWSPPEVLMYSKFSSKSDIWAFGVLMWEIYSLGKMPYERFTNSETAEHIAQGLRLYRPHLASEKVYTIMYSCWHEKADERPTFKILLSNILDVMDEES
Nature of the experiment: BTK C481S activity inhibition assay (HTRF in vitro kinase assay). Format: biochemical. The note with it: 35 μM ATP, 1.5 ng/μL BTK C481S. The protocol:
In vitro kinase assay was used to evaluate the effects of compounds of the present invention on BTK C481S activity (Table 1).
as §1, with “BTK C481S” for “BTK”, “nM SEB,” for “nM SEB”, “contains human” for “contains human-derived”, “protein (purified in-house)” for “protein (Carna Biosciences, Catalog No. 08-180)”, “to 1.5” for “to 0.2”, “and 35” for “and 40”
as §2, with “activity of BTK C481S. In this” for “activity of BTK. In this”, “with BTK C481 S but no” for “with BTK but no”, “XLfit software (TD Business Solutions” for “XLfit software (ID Business Solutions”

T1 sequence (Q06187 whole entry): as the sequence (Q06187 whole entry C481S) above, with S481C counted along it

With `COc1ccc(F)cc1C(=O)NCc1ccc(-c2nn(C3CCC(CO)CC3)c3ccnc(N)c23)cc1` (centres unmarked) [Compound 2, N-(4-(4-amino-1-(4-(hydroxymethyl)cyclohexyl)-1H-pyrazolo[4,3-c]pyridin-3-yl)benzyl)-5-fluoro-2-methoxybenzamide], the values for the pIC50 in experiment [1] and in experiment [2] were 8.77 and 8.60, respectively.
The corresponding values for `COc1ccc(F)cc1C(=O)NCc1ccc(-c2nc(N3CCC(C)(C(=O)O)CC3)n3ccnc(N)c23)cc1` [Compound 27, 1-(8-amino-1-(4-((5-fluoro-2-methoxybenzamido)methyl)phenyl)imidazo[1,5-a]pyrazin-3-yl)-4-methylpiperidine-4-carboxylic acid] are 8.57 and 8.89.
On the same counts, the results for `COC(=O)C12CCC(c3nc(-c4ccc(CNC(=O)c5cc(F)ccc5OC)cc4)c4c(N)nccn34)(CC1)C2` [Compound 38, methyl 4-(8-amino-1-(4-((5-fluoro-2-methoxybenzamido)methyl)phenyl)imidazo[1,5-a]pyrazin-3-yl)bicyclo[2.2.1]heptane-1-carboxylate] are 8.54 and 8.68.
As for `COc1ccc(F)cc1C(=O)NCc1ccc(-c2nc(C(C)C(F)(F)F)n3ncnc(N)c23)cc1` (centres unmarked) [Compound 26, N-(4-(4-amino-7-(1,1,1-trifluoropropan-2-yl)imidazo[5,1-f][1,2,4]triazin-5-yl)benzyl)-5-fluoro-2-methoxybenzamide], the pIC50 in experiment [1] is 8.42; in experiment [2] it was 7.96.
The corresponding values for `COc1ccc(F)cc1C(=O)NCc1ccc(-c2nc([C@H]3CC[C@H](C(=O)O)CC3)n3ncnc(N)c23)cc1` [Compound 15, (1r,4r)-4-(4-amino-5-(4-((5-fluoro-2-methoxybenzamido)methyl)phenyl)imidazo[5,1-f][1,2,4]triazin-7-yl)cyclohexane-1-carboxylic acid] are 8.85 and 8.96.
On to `COc1ccc(F)cc1C(=O)NCc1ccc(-c2nc(N3CCOCC3)n3ccnc(N)c23)cc1` [Compound 44, N-(4-(8-amino-3-morpholinoimidazo[1,5-a]pyrazin-1-yl)benzyl)-5-fluoro-2-methoxybenzamide], for which the pIC50 in experiment [1] is 8.00; in experiment [2], 8.15.
The corresponding values for `COc1ccc(F)cc1C(=O)NCc1ccc(-c2nc(C3CCC(CO)OC3)n3ccnc(N)c23)cc1` (centres unmarked) [Compound 8, N-(4-(8-amino-3-(6-(hydroxymethyl)tetrahydro-2H-pyran-3-yl)imidazo[1,5-a]pyrazin-1-yl)benzyl)-5-fluoro-2-methoxybenzamide] are 8.92 and 9.10.
Regarding `COc1ccc(F)cc1C(=O)NCc1ccc(-c2nc([C@]3(C)CC[C@@](C)(C(=O)O)CC3)n3ncnc(N)c23)cc1` [Compound 47, (1r,4r)-4-(4-amino-5-(4-((5-fluoro-2-methoxybenzamido)methyl)phenyl)imidazo[5,1-f][1,2,4]triazin-7-yl)-1,4-dimethylcyclohexane-1-carboxylic acid], the values for the negative logarithm of the IC50 (pIC50) in experiment [1] and in experiment [2] were 8.89 and 8.85, respectively.
In the case of `COc1ccc(C)nc1C(=O)NCc1ccc(-c2nc(C3CCCOC3)n3ccnc(N)c23)cc1` (centres unmarked) [Compound 19, N-(4-(8-amino-3-(tetrahydro-2H-pyran-3-yl)imidazo[1,5-a]pyrazin-1-yl)benzyl)-3-methoxy-6-methylpicolinamide], the pIC50 in experiment [1] was 6.67; in experiment [2], 6.70.
As to `COC(=O)C12CCC(c3nc(-c4ccc(CNC(=O)c5cc(F)ccc5OC)cc4)c4c(N)ncnn34)(CC1)CC2` [Compound 28, methyl 4-(4-amino-5-(4-((5-fluoro-2-methoxybenzamido)methyl)phenyl)imidazo[5,1-f][1,2,4]triazin-7-yl)bicyclo[2.2.2]octane-1-carboxylate], the negative-log IC50 (pIC50) in experiment [1] was 9.00; in experiment [2], 8.66.
As for `COc1ccc(F)cc1C(=O)NCc1ccc(-c2nc([C@]3(C)CC[C@](C)(C(=O)OC)CC3)n3ccnc(N)c23)cc1` [Compound 39, methyl (1s,4s)-4-(8-amino-1-(4-((5-fluoro-2-methoxybenzamido)methyl)phenyl)imidazo[1,5-a]pyrazin-3-yl)-1,4-dimethylcyclohexane-1-carboxylate], the pIC50 is 8.48 in experiment [1] and 9.22 in experiment [2].
On the same counts, the results for `COc1ccccc1C(=O)NCc1ccc(-c2nc(C3CCC(CO)OC3)n3ccnc(N)c23)cc1` (centres unmarked) [Compound 10, N-(4-(8-amino-3-(6-(hydroxymethyl)tetrahydro-2H-pyran-3-yl)imidazo[1,5-a]pyrazin-1-yl)benzyl)-2-methoxybenzamide] are 7.85 and 8.44.
With `COc1ccc(F)cc1C(=O)NCc1ccc(-c2nn([C@H]3CC[C@@H](O)CC3)c3ccnc(N)c23)cc1` [Compound 3, N-(4-(4-amino-1-((1s,4s)-4-hydroxycyclohexyl)-1H-pyrazolo[4,3-c]pyridin-3-yl)benzyl)-5-fluoro-2-methoxybenzamide], the values for the pIC50 in experiment [1] and in experiment [2] were 8.49 and 8.34, respectively.
